Test results reported in patent US4416884A, “Piperazinylbenzoheterocyclic compounds” (Otsuka Pharmaceutical Co., Ltd., priority 1978, dated 1983).
In brackets after ≈: the same amount, converted by molar mass. Where two headings read alike, the source gives them in different places.

Experiments:
Experiment in all cases: antimicrobial activity, serial dilution method on agar plate
Format in all cases: cell-based
[1] = test system: Serattia marcescens IFO 12648; conditions: read-out: Minimum Inhibitory Concentration
Method: (§1) The antimicrobial activity of the following test compounds on various test organisms listed below was determined by the serial dilution method on agar plate (Heart Infusion agar produced by Difco Co.) (see CHEMOTHERAPY 22, pp. 1126-1128 (1974)), and the minimum inhibitory concentrations (mcg/ml) obtained are shown in Table 1 below.
(§2) A sample of each test organism was prepared so that the population of the organism was 1×10^8 cells/ml (O.D. 660 mμ=0.07 to 0.16) and 1×10^6 cells/ml (which was obtained by diluting the above 1×10^8 cells/ml preparation).

[2] = test system: Proteus rettgeri NIH 96; conditions: Providencia rettgeri, read-out: Minimum Inhibitory Concentration
Method: as §1, §2

[3] = test system: Pseudomonas aeruginosa ATCC 10145; conditions: read-out: Minimum Inhibitory Concentration
Method: as §1, §2

[4] = test system: Escherichia Coli NIHJ; conditions: read-out: Minimum Inhibitory Concentration
Method: as §1, §2

[5] = test system: Streptococcus pyogenes IID S-23; conditions: read-out: Minimum Inhibitory Concentration
Method: as §1, §2

[6] = test system: Shigella Sonnei EW 33; conditions: read-out: Minimum Inhibitory Concentration
Method: as §1, §2

[7] = test system: Staphylococcus aureus FDA 209 P; conditions: read-out: Minimum Inhibitory Concentration
Method: as §1, §2

[8] = test system: Pseudomonas aeruginosa E-2; conditions: read-out: Minimum Inhibitory Concentration
Method: as §1, §2

[9] = test system: Klebsiella pneumoniae; conditions: read-out: Minimum Inhibitory Concentration
Method: as §1, §2

[10] = test system: Pseudomonas aeruginosa NCTC 10490; conditions: read-out: Minimum Inhibitory Concentration
Method: as §1, §2

[11] = test system: Salmonella typhi 0-901 (NCTC 8393); conditions: Salmonella enterica
Method: as §1, §2

[12] = NIH96, inoculum 1 × 10^8 cells/ml
[13] = ATCC10145, inoculum 1 × 10^8 cells/ml
[14] = FDA209, inoculum 1 × 10^8 cells/ml
[15] = NCTC10490, inoculum 1 × 10^8 cells/ml
[16] = read-out: Minimum Inhibitory Concentration, inoculum 1 × 10^8 cells/ml

Row | Compound | MIC ([1]; inoculum 1 × 10^8 cells/ml) | MIC [2, 12] | MIC [3, 13] | MIC ([4]; inoculum 1 × 10^8 cells/ml) | MIC ([6]; inoculum 1 × 10^8 cells/ml) | MIC [7, 14] | MIC ([8]; E2, inoculum 1 × 10^8 cells/ml) | MIC ([9]; inoculum 1 × 10^8 cells/ml) | MIC [10, 15] | MIC [11, 16] | further results
1 | CC1Cc2c(Cl)ccc3c(=O)c(C(=O)O)cn1c23 (stereo not drawn) [G] | 3.1 µg/mL (≈ 11.8 µM) | 0.4 µg/mL (≈ 1.52 µM) | 50 µg/mL (≈ 190 µM) | 0.8 µg/mL (≈ 3.03 µM) | 1.6 µg/mL (≈ 6.07 µM) | 3.1 µg/mL (≈ 11.8 µM) | 100 µg/mL (≈ 379 µM) | 3.1 µg/mL (≈ 11.8 µM) | 25 µg/mL (≈ 94.8 µM) | 0.8 µg/mL (≈ 3.03 µM) | MIC ([1]; inoculum 1 × 10^6 cells/ml): 1.6 µg/mL (≈ 6.07 µM); MIC ([2]; NIH96, inoculum 1 × 10^6 cells/ml): 0.2 µg/mL (≈ 0.758 µM); MIC ([3]; ATCC10145, inoculum 1 × 10^6 cells/ml): 25 µg/mL (≈ 94.8 µM); MIC ([4]; inoculum 1 × 10^6 cells/ml): 0.4 µg/mL (≈ 1.52 µM); MIC ([5]; IIDS23, inoculum 1 × 10^6 cells/ml): > 100 µg/mL; MIC ([5]; IIDS23, inoculum 1 × 10^8 cells/ml): > 100 µg/mL; MIC ([6]; inoculum 1 × 10^6 cells/ml): 1.6 µg/mL (≈ 6.07 µM); MIC ([7]; FDA209, inoculum 1 × 10^6 cells/ml): 3.1 µg/mL (≈ 11.8 µM); MIC ([8]; E2, inoculum 1 × 10^6 cells/ml): 50 µg/mL (≈ 190 µM); MIC ([9]; inoculum 1 × 10^6 cells/ml): 1.6 µg/mL (≈ 6.07 µM); MIC ([10]; NCTC10490, inoculum 1 × 10^6 cells/ml): 12.5 µg/mL (≈ 47.4 µM); MIC ([11]; read-out: Minimum Inhibitory Concentration, inoculum 1 × 10^6 cells/ml): 0.8 µg/mL (≈ 3.03 µM)
2 | CC1(C)SC2C(NC(=O)C(NC(=O)c3cn4c5c(c(N6CCNCC6)cc(Cl)c5c3=O)CCC4)c3ccccc3)C(=O)N2C1C(=O)O (stereo not drawn) [Compound K, 6-{2-[10-Chloro-8-(1-piperazinyl)-6,7-dihydro-1-oxo-1H,5H--benzo[ij]quinolizine-2-carboxamido]-2-phenylacetamido}-3,3-dimethyl-7-oxo-4-thia-1-azabicyclo[3,2,0]heptane-2-carboxylic acid, reference compound] | 12.5 µg/mL (≈ 18.4 µM) | 12.5 µg/mL (≈ 18.4 µM) | 12.5 µg/mL (≈ 18.4 µM) | 6.3 µg/mL (≈ 9.28 µM) | 3.1 µg/mL (≈ 4.56 µM) | 0.8 µg/mL (≈ 1.18 µM) | 25 µg/mL (≈ 36.8 µM) | 6.3 µg/mL (≈ 9.28 µM) | 3.1 µg/mL (≈ 4.56 µM) | 3.1 µg/mL (≈ 4.56 µM) | –
3 | CC1(C)SC2C(NC(=O)C(NC(=O)c3cn4c5c(c(N6CCNCC6)ccc5c3=O)CCC4)c3ccccc3)C(=O)N2C1C(=O)O (stereo not drawn) [I] | 12.5 µg/mL (≈ 19.4 µM) | 0.4 µg/mL (≈ 0.62 µM) | 25 µg/mL (≈ 38.8 µM) | 1.6 µg/mL (≈ 2.48 µM) | 3.1 µg/mL (≈ 4.81 µM) | 0.1 µg/mL (≈ 0.155 µM) | 25 µg/mL (≈ 38.8 µM) | 0.8 µg/mL (≈ 1.24 µM) | 6.3 µg/mL (≈ 9.77 µM) | 0.2 µg/mL (≈ 0.31 µM) | –
